# According to ChEMBL document CHEMBL1154899, “Synthesis and biological evaluation of caffeic acid 3,4-dihydroxyphenethyl ester” (J Nat Prod, 2010):
# Legend:
# Type in all cases: functional
# HCT-116 = experiment: Antiproliferative activity against human HCT116 cells assessed as cell growth at 50 uM by SRB assay; settings: read-out: Activity
# SF-539 = experiment: Antiproliferative activity against human SF539 cells assessed as cell growth at 50 uM by SRB assay; settings: read-out: Activity
# SNB-75 = experiment: Antiproliferative activity against human SNB75 cells assessed as cell growth at 50 uM by SRB assay; settings: read-out: Activity
# UACC-62 [1] = experiment: Antiproliferative activity against human UACC62 cells assessed as cell growth at 50 uM by SRB assay; settings: read-out: Activity
# HCT-15 [2] = experiment: Antiproliferative activity against human HCT15 cells assessed as cell growth at 5 uM by SRB assay; settings: read-out: Activity
# HT-29 [3] = experiment: Antiproliferative activity against human HT-29 cells assessed as cell growth at 5 uM by SRB assay; settings: read-out: Activity
# UACC-257 = experiment: Antiproliferative activity against human UACC257 cells assessed as cell growth at 5 uM by SRB assay; settings: read-out: Activity
# IGROV-1 = experiment: Antiproliferative activity against human IGROV1 cells assessed as cell growth at 5 uM by SRB assay; settings: read-out: Activity
# DU-145 = experiment: Antiproliferative activity against human DU145 cells assessed as cell growth at 5 uM by SRB assay; settings: read-out: Activity
# NCI/ADR-RES [4] = experiment: Antiproliferative activity against human NCI/ADR-RES cells assessed as cell growth at 5 uM by SRB assay; settings: read-out: Activity
# MDA-MB-231 [5] = experiment: Antiproliferative activity against human MDA-MB-231 cells assessed as cell growth at 5 uM by SRB assay; settings: read-out: Activity
# ACHN = experiment: Antiproliferative activity against human ACHN cells assessed as cell growth at 50 uM by SRB assay; settings: read-out: Activity
# MDA-MB-231 [6] = experiment: Antiproliferative activity against human MDA-MB-231 cells assessed as cell growth at 50 uM by SRB assay; settings: read-out: Activity
# OVCAR-8 [7] = experiment: Antiproliferative activity against human OVCAR8 cells assessed as cell growth at 500 uM by SRB assay; settings: read-out: Activity
# NCI/ADR-RES [8] = experiment: Antiproliferative activity against human NCI/ADR-RES cells assessed as cell growth at 500 uM by SRB assay; settings: read-out: Activity
# [9] = Antiproliferative activity against human Hs 578T cells assessed as cell growth at 500 uM by SRB assay; settings: read-out: Activity
# OVCAR-4 = experiment: Antiproliferative activity against human OVCAR4 cells assessed as cell growth at 5 mM by SRB assay; settings: read-out: Activity
# MCF7 [10] = experiment: Antiproliferative activity against human MCF7 cells assessed as cell growth at 5 mM by SRB assay; settings: read-out: Activity
# [11] = Antiproliferative activity against human Hs 578T cells assessed as cell growth at […] by SRB assay; settings: read-out: Activity
# CCRF-CEM = experiment: Antiproliferative activity against human CCRF-CEM cells assessed as cell growth at 500 uM by SRB assay; settings: read-out: Activity
# K562 [12] = experiment: Antiproliferative activity against human K562 cells assessed as cell growth at 500 uM by SRB assay; settings: read-out: Activity
# HOP-62 [13] = experiment: Antiproliferative activity against human HOP62 cells assessed as cell growth at 500 uM by SRB assay; settings: read-out: Activity
# HT-29 [14] = experiment: Antiproliferative activity against human HT-29 cells assessed as cell growth at 500 uM by SRB assay; settings: read-out: Activity
# SK-MEL-28 = experiment: Antiproliferative activity against human SK-MEL-28 cells assessed as cell growth at 500 uM by SRB assay; settings: read-out: Activity
# OVCAR-3 = experiment: Antiproliferative activity against human OVCAR-3 cells assessed as cell growth at 500 uM by SRB assay; settings: read-out: Activity
# OVCAR-5 = experiment: Antiproliferative activity against human OVCAR5 cells by SRB assay
# SR = experiment: Antiproliferative activity against human SR cells by SRB assay
# SK-MEL-2 = experiment: Antiproliferative activity against human SK-MEL-2 cells by SRB assay
# OVCAR-8 [15] = experiment: Antiproliferative activity against human OVCAR8 cells by SRB assay
# SK-OV-3 = experiment: Antiproliferative activity against human SKOV3 cells by SRB assay
# BT-549 = experiment: Antiproliferative activity against human BT549 cells by SRB assay
# UACC-62 [16] = experiment: Antiproliferative activity against human UACC62 cells assessed as cell growth at 0.5 uM by SRB assay; settings: read-out: Activity
# SN12C = experiment: Antiproliferative activity against human SN12C cells assessed as cell growth at 0.5 uM by SRB assay; settings: read-out: Activity
# MCF7 [17] = experiment: Antiproliferative activity against human MCF7 cells assessed as cell growth at 0.5 uM by SRB assay; settings: read-out: Activity
# A549 = experiment: Antiproliferative activity against human A549 cells assessed as cell growth at 0.5 uM by SRB assay; settings: read-out: Activity
# EKVX = experiment: Antiproliferative activity against human EKVX cells assessed as cell growth at 0.5 uM by SRB assay; settings: read-out: Activity
# HOP-62 [18] = experiment: Antiproliferative activity against human HOP62 cells assessed as cell growth at 0.5 uM by SRB assay; settings: read-out: Activity
# HOP-92 = experiment: Antiproliferative activity against human HOP92 cells assessed as cell growth at 0.5 uM by SRB assay; settings: read-out: Activity
# HCT-15 [19] = experiment: Antiproliferative activity against human HCT15 cells assessed as cell growth at 0.5 uM by SRB assay; settings: read-out: Activity
# SNB-19 = experiment: Antiproliferative activity against human SNB19 cells assessed as cell growth at 0.5 uM by SRB assay; settings: read-out: Activity
# LOX IMVI = experiment: Antiproliferative activity against human LOXIMVI cells assessed as cell growth at 0.5 uM by SRB assay; settings: read-out: Activity
# Malme-3M = experiment: Antiproliferative activity against human MALME-3M cells assessed as cell growth at 0.5 uM by SRB assay; settings: read-out: Activity
# K562 [20] = experiment: Antiproliferative activity against human K562 cells assessed as cell growth at 5 uM by SRB assay; settings: read-out: Activity
# COLO 205 = experiment: Antiproliferative activity against human COLO205 cells assessed as cell growth at 5 uM by SRB assay; settings: read-out: Activity
# [21] = read-out: LC50 (the source's name)
# [22] = read-out: pLC50 (the source's name) (converted)
structure (smiles),measurement,setting,value
O=C(/C=C/c1ccc(O)c(O)c1)OCCc1ccc(O)c(O)c1,growth at 50 µM,HCT-116,92%
same,growth at 50 µM,SF-539,89%
same,growth at 50 µM,SNB-75,72%
same,growth at 50 µM,UACC-62 [1],84%
same,growth at 5 µM,HCT-15 [2],88%
same,growth at 5 µM,HT-29 [3],103%
same,growth at 5 µM,UACC-257,92%
same,growth at 5 µM,IGROV-1,102%
same,growth at 5 µM,DU-145,101%
same,growth at 5 µM,NCI/ADR-RES [4],98%
same,growth at 5 µM,MDA-MB-231 [5],108%
same,growth at 50 µM,ACHN,89%
same,growth at 50 µM,MDA-MB-231 [6],97%
same,growth at 500 µM,OVCAR-8 [7],64%
same,growth at 500 µM,NCI/ADR-RES [8],78%
same,growth at 500 µM,[9],67%
same,growth at 5000 µM,OVCAR-4,21%
same,growth at 5000 µM,MCF7 [10],5%
same,growth,[11],9%
same,growth at 500 µM,CCRF-CEM,1%
same,growth at 500 µM,K562 [12],9%
same,growth at 500 µM,HOP-62 [13],95%
same,growth at 500 µM,HT-29 [14],99%
same,growth at 500 µM,SK-MEL-28,55%
same,growth at 500 µM,OVCAR-3,50%
same,GI50,OVCAR-5; read-out: GI50,> 50 µM
same,CC50,OVCAR-5; [21],> 50 µM
same,TGI,OVCAR-5; read-out: TGI,> 50 µM
same,GI50,OVCAR-5; read-out: pGI50 (converted),> 50.1 µM
same,CC50,OVCAR-5; [22],> 50.1 µM
same,TGI,OVCAR-5; read-out: pTGI,> 50.1 µM
same,GI50,SR; read-out: GI50,1.49 µM
same,CC50,SR; [21],> 50 µM
same,TGI,SR; read-out: TGI,12.7 µM
same,GI50,SR; read-out: pGI50 (converted),1.48 µM
same,CC50,SR; [22],> 50.1 µM
same,TGI,SR; read-out: pTGI (converted),12.6 µM
same,GI50,SK-MEL-2; read-out: GI50,3.02 µM
same,CC50,SK-MEL-2; [21],> 50 µM
same,TGI,SK-MEL-2; read-out: TGI,23.7 µM
same,GI50,SK-MEL-2; read-out: pGI50 (converted),3.02 µM
same,CC50,SK-MEL-2; [22],> 50.1 µM
same,TGI,SK-MEL-2; read-out: pTGI (converted),23.4 µM
same,GI50,OVCAR-8 [15]; read-out: GI50,9.32 µM
same,CC50,OVCAR-8 [15]; [21],> 50 µM
same,TGI,OVCAR-8 [15]; read-out: TGI,> 50 µM
same,GI50,OVCAR-8 [15]; read-out: pGI50 (converted),9.33 µM
same,CC50,OVCAR-8 [15]; [22],> 50.1 µM
same,TGI,OVCAR-8 [15]; read-out: pTGI,> 50.1 µM
same,GI50,SK-OV-3; read-out: GI50,13.7 µM
same,CC50,SK-OV-3; [21],> 50 µM
same,TGI,SK-OV-3; read-out: TGI,> 50 µM
same,GI50,SK-OV-3; read-out: pGI50 (converted),13.2 µM
same,CC50,SK-OV-3; [22],> 50.1 µM
same,TGI,SK-OV-3; read-out: pTGI,> 50.1 µM
same,GI50,BT-549; read-out: GI50,8.67 µM
same,CC50,BT-549; [21],> 50 µM
same,TGI,BT-549; read-out: TGI,> 50 µM
same,GI50,BT-549; read-out: pGI50 (converted),8.32 µM
same,CC50,BT-549; [22],> 50.1 µM
same,TGI,BT-549; read-out: pTGI,> 50.1 µM
same,growth at 0.5 µM,UACC-62 [16],91%
same,growth at 0.5 µM,SN12C,74%
same,growth at 0.5 µM,MCF7 [17],94%
same,growth at 0.5 µM,A549,105%
same,growth at 0.5 µM,EKVX,88%
same,growth at 0.5 µM,HOP-62 [18],92%
same,growth at 0.5 µM,HOP-92,70%
same,growth at 0.5 µM,HCT-15 [19],80%
same,growth at 0.5 µM,SNB-19,93%
same,growth at 0.5 µM,LOX IMVI,92%
same,growth at 0.5 µM,Malme-3M,91%
same,growth at 5 µM,K562 [20],95%
same,growth at 5 µM,COLO 205,94%
